According to patent US7119094B1, “Substituted polycyclic aryl and heteroarpyl pyrazinones useful for selective inhibition of the coagulation cascade” (Warner-Lambert Company, priority 2000, dated 2006):
Read-outs that look alike come from different tables or passages of the source.

Legend:
[1] = biological target: T1, Trypsin (type 1× from porcine pancreas) (Sus scrofa, UniProt P00761); assay: Trypsin Assay; assay type: biochemical; parameters: % Inhibition Trypsin II @ 1: concentration or dose not given beside the values; settings: for % Inhibition Trypsin II (30 µM): at 30 µM
T1 construct: Trypsin (5 ug/ml; type 1× from porcine pancreas); purchased Sigma, St. Louis Mo; host or cells: porcine pancreas
T1 sequence (P00761 9-231): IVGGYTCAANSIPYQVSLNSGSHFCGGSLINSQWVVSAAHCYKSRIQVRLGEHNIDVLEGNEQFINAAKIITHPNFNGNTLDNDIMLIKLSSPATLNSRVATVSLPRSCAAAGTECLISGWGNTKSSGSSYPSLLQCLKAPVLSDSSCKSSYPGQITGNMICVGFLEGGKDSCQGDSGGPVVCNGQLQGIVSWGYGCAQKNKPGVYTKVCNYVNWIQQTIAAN

[2] = biological target: T2, recombinant soluble tissue factor and recombinant human factor VIIa (TF-VIIa) (Homo sapiens, UniProt P08709); assay: TF-VIIa Assay; assay type: biochemical
T2 construct: conversion of coagulation factor VII to VIIa by Xa; purchased American Diagnostica, Greenwich Conn; host or cells: factor VIIa purchased; soluble TF made in house in E. coli
T2 sequence (P08709 213-466 limits assumed): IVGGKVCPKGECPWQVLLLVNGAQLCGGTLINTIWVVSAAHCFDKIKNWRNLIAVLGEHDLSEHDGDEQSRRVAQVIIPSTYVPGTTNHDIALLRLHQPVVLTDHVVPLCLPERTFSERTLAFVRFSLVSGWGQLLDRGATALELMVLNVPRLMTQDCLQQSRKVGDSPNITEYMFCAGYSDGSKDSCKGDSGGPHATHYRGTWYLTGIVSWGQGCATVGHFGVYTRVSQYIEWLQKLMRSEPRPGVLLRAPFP
T2 sequence (P08709 61-212 limits assumed): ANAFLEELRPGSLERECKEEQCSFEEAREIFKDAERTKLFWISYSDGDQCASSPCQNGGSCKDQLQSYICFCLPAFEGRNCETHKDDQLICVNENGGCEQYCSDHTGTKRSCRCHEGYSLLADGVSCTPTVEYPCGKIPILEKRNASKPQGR
T2 sequence (P13726 33-251 partner limits assumed): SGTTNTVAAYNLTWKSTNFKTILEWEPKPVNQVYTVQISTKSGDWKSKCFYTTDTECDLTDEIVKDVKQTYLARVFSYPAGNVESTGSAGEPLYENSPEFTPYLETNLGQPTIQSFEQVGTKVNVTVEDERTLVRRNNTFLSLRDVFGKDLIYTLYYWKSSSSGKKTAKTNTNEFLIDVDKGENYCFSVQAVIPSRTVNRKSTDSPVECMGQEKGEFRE

SMILES | % Inhibition Trypsin II @ 1 [1] [% @ 1] | % Inhibition TF-VIIa (100 νM) ([2]; inhibitor at 100 νM) [%] | % Inhibition Trpysin II (100 νM) ([1]; inhibitor at 100 νM) [%] | further results
N=C(N)c1ccc(CNC(=O)Cn2c(-c3ccccc3)c(Cl)nc(NC3CC3)c2=O)cc1 [1507-31] | 2 |  |  | 
O=C(Cn1c(CCc2ccccc2)c(Cl)nc(NCc2ccncc2)c1=O)NCCc1ccncc1 [Example E-0072] |  | 0 | 0 | 
C[C@H](Nc1nc(Cl)c(-c2ccccc2)n(CC(=O)NCc2ccc(C(=N)N)cc2)c1=O)c1ccccc1 [1507-34] | 0 |  |  | 
COc1ccc(CCNc2nc(Cl)c(-c3ccccc3)n(CC(=O)NCc3ccc(C(=N)N)cc3)c2=O)cc1 [1507-11] | 27 |  |  | 
O=C(Cn1c(Cc2ccccc2)c(Cl)nc(NCCc2cccc(Cl)c2)c1=O)NCCc1ccncc1 [Example E-0059] |  | 0 | 0 | 
O=C(Cn1c(-c2ccc3c(c2)OCO3)c(Cl)nc(NCCN2CCOCC2)c1=O)NCCc1ccncc1 [Example E-0047] |  | 0 | 2 | 
O=C(Cn1c(-c2ccc(Cl)cc2)c(Cl)nc(NCc2ccncc2)c1=O)NCCc1ccncc1 [Example E-0032] |  | 0 | 3 | 
O=C(Cn1c(-c2ccc3c(c2)OCO3)c(Cl)nc(NCCc2cccnc2)c1=O)NCCc1ccncc1 [Example E-0045] |  | 0 | 4 | 
COc1ccc(-c2c(Cl)nc(NCc3ccccc3)c(=O)n2CC(=O)NCCc2ccncc2)cc1 [Example E-0097] |  | 0 | 11 | 
O=C(Cn1c(-c2ccccc2)c(Cl)nc(NCc2ccccc2)c1=O)NCCc1ccncc1 [Example E-0009] |  | 0 | 1 | 
COc1ccc(-c2c(Cl)nc(NCCc3ccc(Cl)cc3)c(=O)n2CC(=O)NCCc2ccncc2)cc1 [Example E-0036] |  | 0 | 0 | 
O=C(Cn1c(-c2ccc(Cl)cc2)c(Cl)nc(NCCc2cccnc2)c1=O)NCCc1ccncc1 [Example E-0029] |  | 0 | 2 | 
COc1ccc(-c2c(Cl)nc(NCCN3CCOCC3)c(=O)n2CC(=O)NCCc2ccncc2)cc1 [Example E-0039] |  | 0 | 2 | 
COc1ccc(-c2c(Cl)nc(NCCc3ccc(Cl)cc3)c(=O)n2CC(=O)NCCc2cccnc2)cc1 [Example E-0107] |  | 4 | 12 | 
O=C(Cn1c(-c2ccc(-c3ccccc3)cc2)c(Cl)nc(NCCc2ccc(Cl)cc2)c1=O)NCCc1ccncc1 [Example E-0052] |  |  |  | % Inhibition TF-VIIa (100 νM) [2]: 0%; % Inhibition Trpysin II (100 νM) [1]: 0%
O=C(Cn1c(-c2cccc(Cl)c2)c(Cl)nc(NCCc2cccc(Cl)c2)c1=O)NCCc1cccnc1 [Example E-0080] |  | 1 | 5 | 
O=C(Cn1c(-c2ccccc2)c(Cl)nc(NCc2ccncc2)c1=O)NCCc1ccncc1 [Example E-0016] |  | 0 | 4 | 
O=C(Cn1c(-c2cccc(Cl)c2)c(Cl)nc(NCCc2ccccc2)c1=O)NCCc1ccncc1 [Example E-0088] |  | 0 | 9 | 
N=C(N)c1ccc(CNC(=O)Cn2c(-c3ccccc3)c(Cl)nc(NCC3CC3)c2=O)cc1 [Example 1517-43] |  |  |  | % Inhibition Trypsin II (30 µM) ([1]; cells with % sign): 43%
O=C(Cn1c(CCc2ccccc2)c(Cl)nc(NCCc2ccc(Cl)cc2)c1=O)NCCc1ccncc1 [Example E-0068] |  | 0 | 0 | 

SMILES | % Inhibition Trypsin II @ 1 [1] [% @ 1] | % Inhibition TF-VIIa (100 νM) ([2]; inhibitor at 100 νM) [%] | % Inhibition Trpysin II (100 νM) ([1]; inhibitor at 100 νM) [%] | further results
O=C(Cn1c(-c2ccc(Cl)cc2)c(Cl)nc(NCc2ccccc2)c1=O)NCCc1ccncc1 [Example E-0025] |  | 0 | 3 | 
O=C(Cn1c(-c2ccccc2)c(Cl)nc(NCCc2ccc(Cl)cc2)c1=O)NCCc1ccncc1 [Example E-0012] |  | 0 | 0 | 
O=C(Cn1c(CCc2ccccc2)c(Cl)nc(NCCc2ccncc2)c1=O)NCCc1ccncc1 [Example E-0070] |  | 0 | 0 | 
O=C(Cn1c(-c2cccc(Cl)c2)c(Cl)nc(NCCc2cccc(Cl)c2)c1=O)NCCc1cccnc1 [Example E-0092] |  | 1 | 9 | 
N=C(N)c1ccc(CNC(=O)Cn2c(-c3ccccc3)c(Cl)nc(NCCc3cccs3)c2=O)cc1 [1507-18] | 6 |  |  | 
N=C(N)c1ccc(CNC(=O)Cn2c(-c3ccccc3)c(Cl)nc(NCc3ccc(OC(F)(F)F)cc3)c2=O)cc1 [1507-04] | 9 |  |  | 
O=C(Cn1c(-c2cccc(Cl)c2)c(Cl)nc(NCc2ccccc2)c1=O)NCCc1cccnc1 [Example E-0074] |  | 0 | 8 | 
COc1ccc(-c2c(Cl)nc(NCc3ccccc3)c(=O)n2CC(=O)NCCc2ccncc2)cc1 [Example E-0033] |  | 0 | 5 | 
O=C(Cn1c(-c2cccc(Cl)c2)c(Cl)nc(NCc2ccccc2)c1=O)NCCc1cccnc1 [Example E-0086] |  | 0 | 11 | 
O=C(Cn1c(-c2ccc3c(c2)OCO3)c(Cl)nc(NCCc2cccc(Cl)c2)c1=O)NCCc1ccncc1 [Example E-0043] |  | 0 | 3 | 
O=C(Cn1c(Cc2ccccc2)c(Cl)nc(NCCN2CCOCC2)c1=O)NCCc1ccncc1 [Example E-0063] |  | 0 | 0 | 
O=C(Cn1c(-c2ccccc2)c(Cl)nc(NCCN2CCOCC2)c1=O)NCCc1ccncc1 [Example E-0015] |  | 0 |  | 
COc1ccc(-c2c(Cl)nc(NCCc3ccc(Cl)cc3)c(=O)n2CC(=O)NCCc2ccncc2)cc1 [Example E-0106] |  | 5 | 9 | 
N=C(N)c1ccc(CNC(=O)Cn2c(-c3ccc4c(c3)OCO4)c(Cl)nc(NCCc3ccc(Cl)cc3)c2=O)cc1 [1471-42] |  |  |  | IC50 ([2]; read-out: IC50 TF-VIIa): 10.5 µM
O=C(Cn1c(-c2ccccc2)c(Cl)nc(NCCc2cccnc2)c1=O)NCCc1ccncc1 [Example E-0013] |  | 0 | 1 | 
O=C(Cn1c(Cc2ccccc2)c(Cl)nc(NCCc2ccncc2)c1=O)NCCc1ccncc1 [Example E-0062] |  | 0 | 0 | 
N=C(N)c1ccc(CNC(=O)Cn2c(-c3ccccc3)c(Cl)nc(NCc3ccc(Cl)cc3Cl)c2=O)cc1 [1507-22] | 8 |  |  | 
Nc1cccc(-c2c(Cl)nc(NC3CCC3)c(=O)n2CC(=O)NCCc2ccccc2)c1 [Example 89] |  |  |  | % Inhibition Trypsin II (30 µM) [1]: 9% @ 30
N=C(N)c1ccc(CNC(=O)Cn2c(-c3ccccc3)c(Cl)nc(NCc3ccccn3)c2=O)cc1 [1507-24] |  |  |  | % Inhibition Trypsin II (30 µM) [1]: 25% @ 30
N=C(N)c1ccc(CNC(=O)Cn2c(-c3ccccc3)c(Cl)nc(NCc3ccccc3C(F)(F)F)c2=O)cc1 [1507-15] | 11 |  |  | 

SMILES | % Inhibition Trypsin II @ 1 [1] [% @ 1] | % Inhibition TF-VIIa (100 νM) ([2]; inhibitor at 100 νM) [%] | % Inhibition Trpysin II (100 νM) ([1]; inhibitor at 100 νM) [%] | further results
Cc1ccc(CCNc2nc(Cl)c(-c3ccccc3)n(CC(=O)NCc3ccc(C(=N)N)cc3)c2=O)cc1 [1507-45] | 0 |  |  | 
N=C(N)c1ccc(CNC(=O)Cn2c(-c3ccccc3)c(Cl)nc(NCc3cccc4ccccc34)c2=O)cc1 [1507-28] | 1 |  |  | 
N=C(N)c1ccc(CNC(=O)Cn2c(-c3ccccc3)c(Cl)nc(NC(Cc3ccccc3)c3ccccc3)c2=O)cc1 (centres unmarked) [1507-07] | 7 |  |  | 
CC(C)Nc1nc(Cl)c(-c2cccc([N+](=O)[O-])c2)n(CC(=O)NCc2ccc(C(N)=NO)cc2)c1=O [Example 61] |  |  |  | % Inhibition Trypsin II (30 µM) [1]: 10%
N=C(N)c1ccc(CNC(=O)Cn2c(-c3ccccc3)c(Cl)nc(NCc3ccc(F)cc3F)c2=O)cc1 [1507-26] | 11 |  |  | 
N=C(N)c1ccc(CNC(=O)Cn2c(-c3cccc(N)c3)c(Cl)nc(NCCc3ccccc3)c2=O)cc1 [Example 86] | 78 |  |  | 
Cc1c(Cl)nc(NCCc2ccc(Cl)cc2)c(=O)n1CC(=O)NCc1ccc(C(=N)N)cc1 [1471-2] |  |  |  | % Inhibition Trypsin II (30 µM) [1]: 0%
Nc1cccc(-c2c(Cl)nc(NC3CCC3)c(=O)n2CC(=O)NCc2ccccc2)c1 [Example 99] |  |  |  | % Inhibition Trypsin II (30 µM) [1]: 7% @ 30
N=C(N)c1ccc(CNC(=O)Cn2c(-c3ccccc3)c(Cl)nc(NC3CCCC3)c2=O)cc1 [1507-25] | 60 |  |  | 
N=C(N)c1ccc(CNC(=O)Cn2c(-c3ccccc3)c(Cl)nc(NCc3cccc(Cl)c3)c2=O)cc1 [1507-38] | 0 |  |  | 
N=C(N)c1ccc(CNC(=O)Cn2c(-c3ccccc3)c(Cl)nc(NCc3ccc(Br)cc3)c2=O)cc1 [1507-30] | 0 |  |  | 
N=C(N)NCC#CCNC(=O)Cn1c(-c2ccccc2)cnc(NCCc2ccccc2)c1=O [Example 36] |  |  |  | % Inhibition Trypsin II (30 µM) [1]: 30%
COc1ccc(CNc2nc(Cl)c(-c3ccccc3)n(CC(=O)NCc3ccc(C(=N)N)cc3)c2=O)cc1 [1507-13] | 8 |  |  | 
N=C(N)c1ccc(CNC(=O)Cn2c(-c3ccccc3)c(Cl)nc(NCc3cccc(F)c3)c2=O)cc1 [1507-42] | 0 |  |  | 
COc1ccc(-c2c(Cl)nc(NCCc3ccccc3)c(=O)n2CC(=O)NCCc2ccncc2)cc1 [Example E-0100] |  |  | 12 | 
CC(C)CNc1nc(Cl)c(-c2ccccc2)n(CC(=O)NCc2ccc(C(=N)N)cc2)c1=O [1507-32] | 0 |  |  | 
COc1cccc(CCNc2nc(Cl)c(-c3ccccc3)n(CC(=O)NCc3ccc(C(=N)N)cc3)c2=O)c1 [1507-12] | 12 |  |  | 
N=C(N)c1ccc(CNC(=O)Cn2c(-c3ccccc3)c(Cl)nc(NCCc3ccc(Br)cc3)c2=O)cc1 [1507-06] | 8 |  |  | 
